Reference: article PMC11192711, “Automated radiosynthesis and preclinical evaluation of two new PSMA-617 derivatives radiolabelled via [^18F]AlF^2+ method” (EJNMMI Radiopharmacy and Chemistry, 2024)
pIC50: −log10 of the molar value. Blank lines part the entries; values can stand above or below the compound they belong to.

Key:
[1] = molecular target: T1, PSMA (Homo sapiens, UniProt Q04609); test: Competitive cell binding assay on fixed PC3-PIP cells against [^18F]F-PSMA-1007; conditions: 0.75 nM [^18F]F-PSMA-1007, 60 min room temperature, read-out: inhibition potency toward PMSA (IC50)
T1 construct: expressed in transfected cells; host or cells: PC3-PIP cells (PC3 stably expressing PSMA), fixed with 0.2% glutaraldehyde
Method: Competitive cell binding experiments were conducted using PC3-PIP cells, [^18F]F-PSMA-1007, 300 nM PSMA-1007, and 8 different concentrations of PSMA-617-NODA (7) and PSMA-617-RESCA (9) (0, 0.01, 0.1, 1, 10, 100, 1000, 10,000 nM).
For in vitro uptake, the PC3-PIP cell line, which is isogenic to PC3 and stably expresses PSMA(Ghosh et al. [2005]), and PC-3 cell line (PSMA negative) were used. 40.000 PC3-PIP and PC3 cells were seeded in 96-well cell culture plates and at the confluence were fixed adding 100 µl of 0.2% glutaraldehyde in PBS to medium. After 5 min incubation at 37 °C, the cells were washed six times with PBS. Then 200 µl of 0.1 M Glycine in PBS with 0.02% of sodium azide were added. After 5 min, the cells were washed 6 times with PBS and finally 250 µl of 1% BSA in PBS with 0.2% of sodium azide were added. The competitive cell binding assays were performed as follows: PC3-PIP fixed cells were incubated with [^18F]F-PSMA-1007 at a concentration of 0.75 nM in the presence of 8 different concentrations of PSMA-617-NODA (7) and PSMA-617-RESCA (9) (0, 0.01, 0.1, 1, 10, 100, 1000, 10,000 nM) and of 300 nM of PSMA-1007. […] The activity in the supernatants and cell pellets was determined using a gamma counter (1282 Compugamma CS, LKB Wallac, Finland). Cellular uptake was calculated as the percentage of radioactivity in cell pellets. […]

[2] = tested on: Gli36ΔEGFR tumours-bearing nude mice; test: PET/CT in vivo biodistribution and tumour uptake in orthotopic Gli36ΔEGFR glioma model; conditions: n = 3; for Bone (SUV mean) / Brain (SUV mean) / Colon (SUV mean) / Gall bladder (SUV mean) / Heart (SUV mean) / Kidney (SUV mean) / Liver (SUV mean) / Lung (SUV mean) / Muscle (SUV mean) / Salivary gland (SUV mean) / Small instestine (SUV mean): Gli36ΔEGFR female nude mice, i.v., PET/CT; for tumour-to-contralateral healthy brain ratio (tumour SUV max/contralateral SUV mean): Gli36ΔEGFR orthotopic glioma, nude mice
Method: Subsequently, we evaluated the uptake of [^18F]F-PSMA-617-NODA ([^18F]1) and [^18F]F-PSMA-617-RESCA ([^18F]2) in an orthotopic glioma model obtained with Gli36ΔEGFR cells in female nude mice. Gli36ΔEGFR tumours-bearing nude mice (n = 3) were injected i.v. with either [^18F]F-PSMA-617-NODA or [^18F]F-PSMA-617-RESCA (~ 3.8 MBq/mouse, ~ 50 pmol for [^18F]1 and ~ 170 pmol [^18F]2). Radiotracer uptake was assessed after 10, 60 and 120 min post injection by whole-body PET/CT acquisitions. Also in nude female mice, a rapid clearance of [^18F]1 in all organs and the same kinetic observed in NSG male mice (Additional file 1: S71A and B) were confirmed. […] It is interesting to note that the uptake of [^18F]1 in kidneys decreased over time in both models (Additional file 1: S71A and B), while the uptake of [^18F]F-PSMA-1007 in NSG model and [^18F]2 in nude female mice model increased (Additional file 1: S71C and D).
Total body biodistribution of [^18F]F-PSMA-1007, [^18F]F-PSMA-617-NODA and [^18F]F-PSMA-617-RESCA was evaluated in vivo using imaging PET/CT. [^18F]F-PSMA-617-NODA uptake was compared to that of the [^18F]F-PSMA-1007 in a PSMA positive prostate tumour xenograft model (LNCaP). [^18F]F-PSMA-617-NODA and [^18F]F-PSMA-617-RESCA uptake were also evaluated using an orthotopic glioma model (Gli36ΔEGFR).
5 × 10^5 Gli36ΔEGFR cells were injected in the right striatum of seven to eight weeks old female nude mice (Envigo RMS s.r.l., Italy) as previously described (Valtorta et al. [2021]). Ten days after mice underwent a T2-weighted Magnetic Resonance Imaging (MRI) using a 7 T small animal magnetic resonance scanner (Bruker, BioSpec 70/30 USR, Paravision 5.1, Germany) to confirm the growth of the tumour. Then, the same mice underwent in vivo biodistribution of [^18F]F-PSMA-617-NODA and [^18F]F-PSMA-617-RESCA, on successive but non-consecutive days, using PET/CT.
Mice were injected into a tail vein with 3.8 ± 0.1 MBq of [^18F]F-PSMA-1007, 4.0 ± 0.2 MBq of [^18F]F-PSMA-617-NODA ([^18F]1) and 3.8 ± 0.1 MBq of [^18F]F-PSMA-617-RESCA ([^18F]2), respectively.
Total body PET/CT acquisitions were performed using PET/CT tomographs dedicated to small animals, X-ß-CUBE (Molecubes, Gent, Belgium) after 10, 60 and 120 min from tracer injection. Each acquisition lasted 30 min and mice were maintained anesthetized (4% isoflurane in induction and 2% in maintenance in air) during acquisition.
Image quantification analysis was performed with PMOD 4.105 software (Zurich, Switzerland). Volumes of interest (VOIs) were drawn on peripheral organs (tumour, thoracic muscle, heart, liver, kidney, salivary glands, lung, small intestine, colon, bone, gall bladder) and on the healthy brain using CT images. For the glioma model, PET/CT images were co-registered to MRI images and two different VOIs were defined: (1) a control VOI covering the healthy left striatum (volume 4 mm^3) was drawn on the axial MR images, adjusted on the other imaging planes and then copied on the PET images of each mouse; (2) a second glioma-covering VOI was drawn in the tumour-affected brain hemisphere and centered on mice lesions.
For quantification, Standardized Uptake Value (SUV) was calculated according to the formula:
SUV = organ concentration activity [MBq/g]/(injected activity [MBq]/animal weight [g]).
The data were expressed as standardized-uptake-values (SUVmean and SUVmax) and as tumour-to-muscle (T/M) and tumour-to-blood (T/B) ratio in PCa model and as tumour-to-contralateral (T/Cl) ratio in glioma model.

[3] = Stability in final solution (analytical HPLC and radio-TLC); type: physicochemical; conditions: for release of [^18F]AlF^2+: in solution
Method: Chemical and radiochemical stability in the final solution were tested by analytical HPLC and radio-TLC (Additional file 1: S37–S41); samples of the purified product were analyzed up to four hours after the end of radiosynthesis, at time intervals of two hours and storing the vial at room temperature.
Stability in solution of [^18F]F-PSMA-617-NODA ([^18F]1) and [^18F]F-PSMA-617-RESCA ([^18F]2) were evaluated injecting in RP-HPLC (for experimental conditions, see sections “(((S)-5-((S)-2-((1R,4S)-4-((4-(4,7-bis(carboxymethyl)-1,4,7-triazonan-1-yl)butanamido)methyl)cyclohexane-1-carboxamido)-3-(naphthalen-2-yl)propanamido)-1-carboxypentyl)carbamoyl)-L-glutamic acid [^18F] aluminium fluoride ([^18F] 1)” and “(((S)-5-((S)-2-((1R,4S)-4-((2-(4-((((1R,2R)-2-(bis(carboxymethyl)amino)cyclohexyl)(carboxymethyl)amino)methyl)phenyl)acetamido)methyl)cyclohexane-1-carboxamido)-3-(naphthalen-2-yl)propanamido)-1-carboxypentyl)carbamoyl)-L-glutamic acid [18F] aluminium fluoride ([18F] 2)”) samples (20 µl) of respective radiopharmaceutical solutions at t = 0 (EOS), after 2 h and after 4 h. Moreover, ≈ 7.5 kBq of [^18F]1 or [^18F]2 solution were deposited on TLC sheet. The TLC was imaged using Cyclone® Plus Phosphor Scanner and software OptiQuant™.

[4] = Stability in human plasma (HPLC, radio-TLC, pellet/supernatant activity); type: in vitro ADME; conditions: ACN precipitation
Method: Stability in plasma was evaluated mixing aliquots of [^18F]1 or [^18F]2 solutions (10 MBq for 2 h incubation and 20 MBq for 4 h incubation samples) with 200 µL of human serum. The mixtures were incubated at 37 °C. Aliquots were taken at 2 h and 4 h. Plasma pellet was precipitated with 200 µL acetonitrile and centrifuged (13,500 rpm, 10 min). The supernatant was removed, and the activity of the supernatant solution and pellet was measured using a dose calibrator (VIK-202 Comecer). The supernatant solution was analyzed injecting in RP-HPLC (diluted 1:5 in water) and Radio-TLC as above described.

[5] = [18F]2, 2 h incubation in plasma, total activity incubated 3.91 MBq
[6] = [18F]2, 4 h incubation in plasma, total activity incubated 4.62 MBq

T1 sequence (Q04609 whole entry): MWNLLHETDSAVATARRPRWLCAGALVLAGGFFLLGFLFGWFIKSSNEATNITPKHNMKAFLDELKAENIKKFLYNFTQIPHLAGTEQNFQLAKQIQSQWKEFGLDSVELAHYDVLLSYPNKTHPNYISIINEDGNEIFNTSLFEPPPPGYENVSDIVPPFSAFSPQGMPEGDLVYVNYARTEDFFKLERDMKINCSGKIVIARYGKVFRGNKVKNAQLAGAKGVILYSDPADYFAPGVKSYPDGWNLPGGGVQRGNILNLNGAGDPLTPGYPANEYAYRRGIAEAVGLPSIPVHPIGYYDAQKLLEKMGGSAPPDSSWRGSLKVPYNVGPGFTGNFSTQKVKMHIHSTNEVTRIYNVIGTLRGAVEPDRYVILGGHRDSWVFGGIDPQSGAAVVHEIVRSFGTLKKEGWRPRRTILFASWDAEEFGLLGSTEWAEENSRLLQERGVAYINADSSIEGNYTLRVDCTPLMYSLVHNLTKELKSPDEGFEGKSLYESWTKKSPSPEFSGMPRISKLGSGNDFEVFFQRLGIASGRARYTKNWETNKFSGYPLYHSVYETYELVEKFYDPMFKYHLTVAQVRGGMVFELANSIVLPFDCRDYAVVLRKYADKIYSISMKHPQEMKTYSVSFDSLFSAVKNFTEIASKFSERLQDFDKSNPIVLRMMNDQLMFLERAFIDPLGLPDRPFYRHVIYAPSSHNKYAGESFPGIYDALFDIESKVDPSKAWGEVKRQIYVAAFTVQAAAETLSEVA

pIC50 [1]: 7.19
Structure (SMILES): O=C(O)CC[C@H](NC(=O)N[C@@H](CCCCNC(=O)[C@H](Cc1ccc2ccccc2c1)NC(=O)[C@H]1CC[C@H](CNC(=O)CCCN2CCN(CC(=O)O)CCN(CC(=O)O)CC2)CC1)C(=O)O)C(=O)O [PSMA-617-NODA, (((S)-5-((S)-2-((1R,4S)-4-((4-(4,7-bis(carboxymethyl)-1,4,7-triazonan-1-yl)butanamido)methyl)cyclohexane-1-carboxamido)-3-(naphthalen-2-yl)propanamido)-1-carboxypentyl)carbamoyl)-L-glutamic acid]

Structure (SMILES): O=C(O)CCC(NC(=O)NC(CCCCNC(=O)C(Cc1ccc2ccccc2c1)NC(=O)C1CCC(CNC(=O)Cc2ccc(CN(CC(=O)O)C3CCCCC3N(CC(=O)O)CC(=O)O)cc2)CC1)C(=O)O)C(=O)O.[18F][Al] [[^18F]F-PSMA-617-RESCA, (((S)-5-((S)-2-((1R,4S)-4-((2-(4-((((1R,2R)-2-(bis(carboxymethyl)amino)cyclohexyl)(carboxymethyl)amino)methyl)phenyl)acetamido)methyl)cyclohexane-1-carboxamido)-3-(naphthalen-2-yl)propanamido)-1-carboxypentyl)carbamoyl)-L-glutamic acid [^18F] aluminium fluoride]
Bone (SUV mean) ([2]; 10 min p.i.): 0.21 ± 0.03 | Brain (SUV mean) ([2]; 10 min p.i.): 0.09 ± 0.02 | Colon (SUV mean) ([2]; 10 min p.i.): 0.29 ± 0.23 | Gall bladder (SUV mean) ([2]; 10 min p.i.): 3.28 ± 3.18 | Heart (SUV mean) ([2]; 10 min p.i.): 0.35 ± 0.05 | Kidney (SUV mean) ([2]; 10 min p.i.): 6.92 ± 1.16 | Liver (SUV mean) ([2]; 10 min p.i.): 0.98 ± 0.15 | Lung (SUV mean) ([2]; 10 min p.i.): 0.31 ± 0.01 | Muscle (SUV mean) ([2]; 10 min p.i.): 0.19 ± 0.05 | Salivary gland (SUV mean) ([2]; 10 min p.i.): 0.54 ± 0.14 | Small instestine (SUV mean) ([2]; 10 min p.i.): 1.99 ± 1.44 | Bone (SUV mean) ([2]; 60 min p.i.): 0.20 ± 0.07 | Brain (SUV mean) ([2]; 60 min p.i.): 0.07 ± 0.02 | Colon (SUV mean) ([2]; 60 min p.i.): 0.78 ± 1.05 | Gall bladder (SUV mean) ([2]; 60 min p.i.): 5.22 ± 4.23 | Heart (SUV mean) ([2]; 60 min p.i.): 0.17 ± 0.03 | Kidney (SUV mean) ([2]; 60 min p.i.): 10.21 ± 0.80 | Liver (SUV mean) ([2]; 60 min p.i.): 0.65 ± 0.22 | Lung (SUV mean) ([2]; 60 min p.i.): 0.19 ± 0.04 | Muscle (SUV mean) ([2]; 60 min p.i.): 0.12 ± 0.02 | Salivary gland (SUV mean) ([2]; 60 min p.i.): 0.45 ± 0.10 | Small instestine (SUV mean) ([2]; 60 min p.i.): 3.07 ± 1.02 | Bone (SUV mean) ([2]; 120 min p.i.): 0.15 ± 0.11 | Brain (SUV mean) ([2]; 120 min p.i.): 0.07 ± 0.01 | Colon (SUV mean) ([2]; 120 min p.i.): 3.87 ± 5.37 | Gall bladder (SUV mean) ([2]; 120 min p.i.): 5.07 ± 4.26 | Heart (SUV mean) ([2]; 120 min p.i.): 0.11 ± 0.03 | Kidney (SUV mean) ([2]; 120 min p.i.): 10.64 ± 1.25 | Liver (SUV mean) ([2]; 120 min p.i.): 0.30 ± 0.11 | Lung (SUV mean) ([2]; 120 min p.i.): 0.12 ± 0.03 | Muscle (SUV mean) ([2]; 120 min p.i.): 0.11 ± 0.04 | Salivary gland (SUV mean) ([2]; 120 min p.i.): 0.28 ± 0.10 | Small instestine (SUV mean) ([2]; 120 min p.i.): 5.79 ± 2.07 | tumour-to-contralateral healthy brain ratio (tumour SUV max/contralateral SUV mean) ([2]; 60 min p.i.): 2.93 ± 1.23 | tumour-to-contralateral healthy brain ratio (tumour SUV max/contralateral SUV mean) ([2]; 120 min p.i.): 2.93 ± 0.08 | amount of free [^18F]AlF^2+ in solution ([3]; approximately 85 min after EOS (time of injection), supposed): < 5% | release of [^18F]AlF^2+ ([3]; after 2 h of incubation at room temperature): 4.9% | release of [^18F]AlF^2+ ([3]; at EOS): 1.2% | release of [^18F]AlF^2+ ([3]; room temperature, after 4 h): 10% | Pellet activity [4, 5]: 0.45 MBq | Supernatant activity [4, 5]: 3.46 MBq | Pellet activity [4, 6]: 0.57 MBq | Supernatant activity [4, 6]: 4.05 MBq

Structure (SMILES): O=C(O)CCC(NC(=O)NC(CCCCNC(=O)C(Cc1ccc2ccccc2c1)NC(=O)C1CCC(CNC(=O)Cc2ccc(CN(CC(=O)O)C3CCCCC3N(CC(=O)O)CC(=O)O)cc2)CC1)C(=O)O)C(=O)O [PSMA-617-RESCA, (((S)-5-((S)-2-((1R,4S)-4-((2-(4-((((1R,2R)-2-(bis(carboxymethyl)amino)cyclohexyl)(carboxymethyl)amino)methyl)phenyl)acetamido)methyl)cyclohexane-1-carboxamido)-3-(naphthalen-2-yl)propanamido)-1-carboxypentyl)carbamoyl)-L-glutamic acid]
pIC50 [1]: 7.70
